According to patent US20150105252A1, “SUBSTITUTED PYRAZOLES AS HERBICIDES” (E I DU PONT DE NEMOURS AND COMPANY, priority 2013, published 2015):

How the values were obtained:
[1] = tested on: barnyardgrass; experiment: Test A postemergence; type: in vivo, Echinochloa crus-galli
Summary of the method: (§1)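 Pre- and postemergence greenhouse test; loam+sand; cpd in non-phytotox. solvent/surfactant; post at 1–2 leaf, 2–10 cm; visual score ~10 d, 0 = none, 100 = complete control.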

[2] = tested on: barnyardgrass; experiment: Test A preemergence; type: in vivo, Echinochloa crus-galli; conditions: preemergence
Summary of the method: as §1

[3] = tested on: morningglory; experiment: Test A preemergence; type: in vivo, Ipomoea spp.; conditions: preemergence; for Morningglory plant response rating (0 to 100 scale): visual injury approx. 10 days after treatment
Summary of the method: as §1

[4] = tested on: foxtail, giant; experiment: Test A postemergence; type: in vivo, Setaria faberii
Summary of the method: as §1

[5] = tested on: velvetleaf; experiment: Test A postemergence; type: in vivo, Abutilon theophrasti
Summary of the method: as §1

[6] = tested on: wheat; experiment: Test A postemergence; type: in vivo, Triticum aestivum
Summary of the method: as §1

[7] = tested on: sedge, umbrella; experiment: Test B flood; type: in vivo, Cyperus difformis; conditions: 250 g ai/ha, visual rating on 0 to 100 scale (0 no effect, 100 complete control), 13 to 15 days
Experimental: (§2) Seeds selected from rice (Oryza sativa), sedge, umbrella (small-flower umbrella sedge Cyperus difformis), ducksalad (Heteranthera limosa), and barnyardgrass (Echinochloa crus-galli) were grown to the 2-leaf stage for testing. At time of treatment, test pots were flooded to 3 cm above the soil surface, treated by application of test compounds directly to the paddy water, and then maintained at that water depth for the duration of the test.
(§3) Treated plants and controls were maintained in a greenhouse for 13 to 15 days, after which time all species were compared to controls and visually evaluated. Plant response ratings, summarized in Table B, are based on a scale of 0 to 100 where 0 is no effect and 100 is complete control. A dash (-) response means no test result.

[8] = tested on: pigweed; experiment: Test A postemergence; type: in vivo, Amaranthus retroflexus
Summary of the method: as §1

[9] = tested on: foxtail, giant; experiment: Test A preemergence; type: in vivo, Setaria faberii; conditions: preemergence; for Foxtail, Giant plant response rating (0 to 100 scale): visual injury approx. 10 days after treatment
Summary of the method: as §1

[10] = tested on: barnyardgrass; experiment: Test B flood; type: in vivo, Echinochloa crus-galli; conditions: 250 g ai/ha, visual rating on 0 to 100 scale (0 no effect, 100 complete control), 13 to 15 days
Experimental: as §2, §3

[11] = tested on: velvetleaf; experiment: Test A preemergence; type: in vivo, Abutilon theophrasti; conditions: preemergence; for Velvetleaf plant response rating (0 to 100 scale): visual injury approx. 10 days after treatment
Summary of the method: as §1

[12] = tested on: morningglory; experiment: Test A postemergence; type: in vivo, Ipomoea spp.
Summary of the method: as §1

[13] = tested on: ducksalad; experiment: Test B flood; type: in vivo, Heteranthera limosa; conditions: 250 g ai/ha, visual rating on 0 to 100 scale (0 no effect, 100 complete control), 13 to 15 days
Experimental: as §2, §3

[14] = tested on: pigweed; experiment: Test A preemergence; type: in vivo, Amaranthus retroflexus; conditions: preemergence; for Pigweed plant response rating (0 to 100 scale): visual injury approx. 10 days after treatment
Summary of the method: as §1

[15] = tested on: corn; experiment: Test A preemergence; type: in vivo, Zea mays; conditions: preemergence; for Corn plant response rating (0 to 100 scale): visual injury approx. 10 days after treatment
Summary of the method: as §1

[16] = tested on: wheat; experiment: Test A preemergence; type: in vivo, Triticum aestivum; conditions: preemergence; for Wheat plant response rating (0 to 100 scale): visual injury approx. 10 days after treatment
Summary of the method: as §1

[17] = tested on: corn; experiment: Test A postemergence; type: in vivo, Zea mays
Summary of the method: as §1

[18] = tested on: crabgrass, large; experiment: Test A postemergence; type: in vivo, Digitaria sanguinalis
Summary of the method: as §1

[19] = tested on: rice; experiment: Test B flood; type: in vivo, Oryza sativa; conditions: 250 g ai/ha, visual rating on 0 to 100 scale (0 no effect, 100 complete control), 13 to 15 days
Experimental: as §2, §3

[20] = tested on: crabgrass, large; experiment: Test A preemergence; type: in vivo, Digitaria sanguinalis; conditions: preemergence; for Crabgrass, Large plant response rating (0 to 100 scale): visual injury approx. 10 days after treatment
Summary of the method: as §1

[21] = Postemergence, 500 g ai/ha, visual rating after approx. 10 days, 0 to 100 scale (0 no effect, 100 complete control)
[22] = 125 g ai/ha, visual injury, 0 to 100 scale, approx. 10 days
[23] = 500 g ai/ha, visual injury after approx. 10 days, 0 to 100 scale (0 no effect, 100 complete control)
[24] = postemergence, 125 g ai/ha, about 10 days, visual rating on 0 to 100 scale (0 no effect, 100 complete control)
[25] = Postemergence, 500 g ai/ha, 0 to 100 scale (0 no effect, 100 complete control)

| Structure (SMILES) | Barnyardgrass plant response rating [2, 22] | Barnyardgrass plant response rating [2, 23] | Morningglory plant response rating [3, 23] | Foxtail, Giant plant response rating [4, 24] | Velvetleaf plant response rating [5, 24] | Wheat plant response rating [6, 24] | Plant response rating, Sedge, Umbrella [7] | Pigweed plant response rating [8, 24] | Foxtail, Giant plant response rating [9, 23] | Plant response rating, Barnyardgrass [10] | Velvetleaf plant response rating [11, 23] | Morningglory plant response rating [12, 24] | Plant response rating, Ducksalad [13] | Pigweed plant response rating [14, 23] | Corn plant response rating [15, 23] | Wheat plant response rating [16, 23] | Corn plant response rating [17, 24] | Crabgrass, Large plant response rating [18, 24] | Plant response rating, Rice [19] | Crabgrass, Large plant response rating [20, 23] | further results |
| --- | --- | --- | --- | --- | --- | --- | --- | --- | --- | --- | --- | --- | --- | --- | --- | --- | --- | --- | --- | --- | --- |
| CCc1cc(C(=O)NC2CC2)nn1Cc1cccc(C(F)(F)F)n1 [Compound 91] | 0 | 0 | 0 | 0 | 10 | 0 | 0 | 20 | 0 | 0 | 0 | 10 | 0 | 40 | 0 | 0 | 0 | 0 | 0 | 20 | Barnyardgrass plant response rating ([1]; Postemergence, 125 g ai/ha, 0 to 100 scale, 0 no effect, 100 complete control): 0; Barnyardgrass plant response rating [1, 21]: 10; Morningglory plant response rating [3, 22]: 0; Foxtail, Giant plant response rating [4, 21]: 10; Velvetleaf plant response rating [5, 21]: 10; Wheat plant response rating [6, 21]: 0; Pigweed plant response rating [8, 21]: 40; Foxtail, Giant plant response rating [9, 22]: 0; Velvetleaf plant response rating [11, 22]: 0; Morningglory plant response rating [12, 21]: 20; Pigweed plant response rating [14, 22]: 0; Corn plant response rating [15, 22]: 0; Wheat plant response rating [16, 22]: 0; Corn plant response rating [17, 21]: 10; Crabgrass, Large plant response rating [18, 21]: 10; Crabgrass, Large plant response rating [20, 22]: 0 |
| CCCCNC(=O)c1cc(Br)n(Cc2cccc(C(F)(F)F)c2)n1 [Compound 162] | 0 | 0 | 0 | 10 | 0 | 0 | 0 | 40 | 60 | 0 | 0 | 20 | 0 | 0 | 0 | 0 | 10 | 10 | 0 | 30 | Barnyardgrass plant response rating [1, 25]: 20; Barnyardgrass plant response rating [1, 24]: 0; Morningglory plant response rating (0 to 100 scale) ([3]; 125 g ai/ha): 0; Foxtail, Giant plant response rating [4, 25]: 20; Velvetleaf plant response rating [5, 25]: 40; Wheat plant response rating [6, 25]: 0; Pigweed plant response rating [8, 25]: 60; Foxtail, Giant plant response rating (0 to 100 scale) ([9]; 125 g ai/ha): 0; Velvetleaf plant response rating (0 to 100 scale) ([11]; 125 g ai/ha): 0; Morningglory plant response rating [12, 25]: 40; Pigweed plant response rating (0 to 100 scale) ([14]; 125 g ai/ha): 0; Corn plant response rating (0 to 100 scale) ([15]; 125 g ai/ha): 0; Wheat plant response rating (0 to 100 scale) ([16]; 125 g ai/ha): 0; Corn plant response rating [17, 25]: 20; Crabgrass, Large plant response rating [18, 25]: 20; Crabgrass, Large plant response rating (0 to 100 scale) ([20]; 125 g ai/ha): 0 |
| O=C(NCC(F)(F)F)c1cc(Br)n(Cc2cccc(C(F)(F)F)c2)n1 [Compound 161] | 0 | 0 | 0 | 10 | 30 | 0 | 0 | 40 | 20 | 0 | 0 | 30 | 0 | 80 | 0 | 0 | 0 | 20 | 0 | 70 | Barnyardgrass plant response rating [1, 25]: 10; Barnyardgrass plant response rating [1, 24]: 10; Morningglory plant response rating (0 to 100 scale) ([3]; 125 g ai/ha): 0; Foxtail, Giant plant response rating [4, 25]: 20; Velvetleaf plant response rating [5, 25]: 50; Wheat plant response rating [6, 25]: 0; Pigweed plant response rating [8, 25]: 70; Foxtail, Giant plant response rating (0 to 100 scale) ([9]; 125 g ai/ha): 0; Velvetleaf plant response rating (0 to 100 scale) ([11]; 125 g ai/ha): 0; Morningglory plant response rating [12, 25]: 50; Pigweed plant response rating (0 to 100 scale) ([14]; 125 g ai/ha): 10; Corn plant response rating (0 to 100 scale) ([15]; 125 g ai/ha): 0; Wheat plant response rating (0 to 100 scale) ([16]; 125 g ai/ha): 0; Corn plant response rating [17, 25]: 10; Crabgrass, Large plant response rating [18, 25]: 30; Crabgrass, Large plant response rating (0 to 100 scale) ([20]; 125 g ai/ha): 10 |
